Source: ChEMBL document CHEMBL3867490, “Chalcone-benzoxaborole hybrids as novel anticancer agents” (Bioorg Med Chem Lett, 2016)

What was measured:
[1] = Cytotoxicity against human HCT116 cells assessed as reduction in cell viability after 48 hrs by MTT assay; format: functional, cell-based; settings: HCT-116, 48 h
[2] = Cytotoxicity against human SKOV3 cells assessed as reduction in cell viability after 48 hrs by MTT assay; format: functional, cell-based; settings: SK-OV-3, 48 h
[3] = Selectivity ratio of IC50 for human WI38 cells to IC50 for human MDA-MB-231 cells; format: ADME, cell-based, WI-38; settings: WI38 cells versus MDA-MB-231 cells, read-out: Ratio IC50
[4] = Cytotoxicity against human WI38 cells assessed as reduction in cell viability after 48 hrs by MTT assay; format: toxicity, cell-based, WI-38
[5] = Cytotoxicity against human MCF10A cells assessed as reduction in cell viability after 48 hrs by MTT assay; format: toxicity, cell-based, MCF-10A
[6] = Cytotoxicity against human MDA-MB-231 cells assessed as reduction in cell viability after 48 hrs by MTT assay; format: functional, cell-based; settings: MDA-MB-231, 48 h
[7] = Selectivity ratio of IC50 for human MCF10A cells to IC50 for human SKOV3 cells; format: ADME, cell-based, MCF-10A; settings: MCF10A cells versus SKOV3 cells, read-out: Ratio IC50
[8] = Selectivity ratio of IC50 for human WI38 cells to IC50 for human SKOV3 cells; format: ADME, cell-based, SK-OV-3; settings: WI38 cells versus SKOV3 cells, read-out: Ratio IC50

Structure (SMILES)	IC50 [1]	IC50 [2]	selectivity ratio [3]	IC50 at 48 h [4]	IC50 at 48 h [5]	IC50 [6]	selectivity ratio [7]	selectivity ratio [8]
O=C(/C=C/c1ccc2c(c1)B(O)OC2)c1ccccc1	6.1 µM	3.4 µM	8	19.1 µM	15.9 µM	2.3 µM		
Cc1ccc(C(=O)/C=C/c2ccc3c(c2)B(O)OC3)cc1	10.5 µM	3.7 µM		22.2 µM	8.3 µM	6.5 µM		
O=C(/C=C/c1ccc2c(c1)B(O)OC2)c1ccc(-c2ccccc2)cc1	9.5 µM	4.9 µM		18.3 µM	20.7 µM	6.4 µM		
O=C(/C=C/c1ccc2c(c1)B(O)OC2)c1cccc2ccccc12	5 µM	2.7 µM		18.8 µM	13.4 µM	3.6 µM		
O=C(/C=C/c1ccc2c(c1)B(O)OC2)c1ccco1	24.1 µM	20.7 µM		59 µM	7.4 µM	7.3 µM		
O=C(/C=C/c1ccc2c(c1)B(O)OC2)c1cccs1	14.2 µM	10.4 µM		26 µM	13.8 µM	4.6 µM		
Cn1cccc1C(=O)/C=C/c1ccc2c(c1)B(O)OC2	> 100 µM	93.6 µM		> 100 µM	> 100 µM	> 100 µM		
O=C(/C=C/c1ccc2c(c1)B(O)OC2)c1ccc([N+](=O)[O-])cc1	9.1 µM	7.9 µM		39.3 µM	17.5 µM	11.2 µM		
O=C(/C=C/c1ccc2c(c1)B(O)OC2)c1ccc(C(F)(F)F)cc1	6.3 µM	3.7 µM		22.6 µM	22.3 µM	9.2 µM		
CCOC(=O)c1ccc(C(=O)/C=C/c2ccc3c(c2)B(O)OC3)cc1	7.6 µM	7.1 µM		47.2 µM	12.9 µM	13 µM		
O=C(/C=C/c1ccc2c(c1)B(O)OC2)c1ccc(F)cc1	2.8 µM	1.4 µM		7.6 µM	11.8 µM	1.6 µM		
O=C(/C=C/c1ccc2c(c1)B(O)OC2)c1ccc(Cl)cc1	9.3 µM	3.7 µM		24.7 µM	12.1 µM	7.9 µM		
O=C(/C=C/c1ccc2c(c1)B(O)OC2)c1ccc(Br)cc1	9.9 µM	4.5 µM		36.7 µM	27.8 µM	9.5 µM		
O=C(/C=C/c1ccc2c(c1)B(O)OC2)c1ccc(I)cc1	11.6 µM	4.2 µM		> 100 µM	> 100 µM	14.9 µM	> 25	> 25
CCc1ccc(C(=O)/C=C/c2ccc3c(c2)B(O)OC3)cc1	10.9 µM	4.4 µM		20.6 µM	8.8 µM	9.8 µM		
CSc1ccc(C(=O)/C=C/c2ccc3c(c2)B(O)OC3)cc1	10.3 µM	4.1 µM		54.3 µM	7.4 µM	9.8 µM		
O=C(/C=C/c1ccc2c(c1)B(O)OC2)c1ccc(OCc2ccccc2)cc1	12.1 µM	6 µM		> 100 µM	23.3 µM	5.3 µM		
O=C(/C=C/c1ccc2c(c1)B(O)OC2)c1ccc(O)cc1	24.1 µM	13 µM		> 100 µM	24.8 µM	25.6 µM		
Nc1ccc(C(=O)/C=C/c2ccc3c(c2)B(O)OC3)cc1	26.1 µM	20.2 µM		25.4 µM	19.9 µM	25.8 µM		
O=C(/C=C/c1ccc2c(c1)B(O)OC2)c1ccccc1F	4.2 µM	3.7 µM		23.6 µM	25.4 µM	2.2 µM		
O=C(/C=C/c1ccc2c(c1)B(O)OC2)c1cccc(F)c1	6.7 µM	4.8 µM		26.7 µM	15.8 µM	3 µM		

Structure (SMILES)	IC50 [1]	IC50 [2]	selectivity ratio [3]	IC50 at 48 h [4]	IC50 at 48 h [5]	IC50 [6]	selectivity ratio [7]	selectivity ratio [8]
Cc1cccc(C(=O)/C=C/c2ccc3c(c2)B(O)OC3)c1	6.7 µM	2.9 µM		16.7 µM	15.9 µM	4.5 µM		
Cc1ccc(C(=O)/C=C/c2ccc3c(c2)B(O)OC3)cc1C	6.1 µM	1.9 µM		22 µM	4.7 µM	5.3 µM		
O=C(/C=C/c1ccc2c(c1)B(O)OC2)c1ccc(Cl)c(Cl)c1	3.2 µM	1.8 µM		12.5 µM	14.9 µM	3.4 µM		
O=C(/C=C/c1ccc2c(c1)B(O)OC2)c1ccc(O)c(O)c1	> 100 µM	> 100 µM		> 100 µM	> 100 µM	67.6 µM		
COc1ccccc1C(=O)/C=C/c1ccc2c(c1)B(O)OC2	5 µM	2.6 µM		21.7 µM	9.1 µM	3.1 µM		
COc1cccc(C(=O)/C=C/c2ccc3c(c2)B(O)OC3)c1	5 µM	2.6 µM		14.6 µM	7.4 µM	2.1 µM		
COCOc1ccccc1C(=O)/C=C/c1ccc2c(c1)B(O)OC2	10.2 µM	6.5 µM		27 µM	11.7 µM	10.2 µM		
COCOc1cccc(C(=O)/C=C/c2ccc3c(c2)B(O)OC3)c1	13.3 µM	11.7 µM		33.2 µM	48.1 µM	4.5 µM		
Nc1cccc(C(=O)/C=C/c2ccc3c(c2)B(O)OC3)c1	4.5 µM	7.4 µM		25.3 µM	19.6 µM	3.2 µM		
O=C(/C=C/c1ccc2c(c1)B(O)OC2)c1ccccc1O	77.9 µM	48.8 µM		> 100 µM	53.7 µM	16.9 µM		
O=C(/C=C/c1ccc2c(c1)B(O)OC2)c1cccc(O)c1	6.5 µM	3.8 µM		26.4 µM	25.3 µM	2.7 µM		
COc1ccc(C(=O)/C=C/c2ccc3c(c2)B(O)OC3)cc1OC	12.2 µM	4.8 µM		33.5 µM	13.5 µM	13.2 µM		
COc1ccc(C(=O)/C=C/c2ccc3c(c2)B(O)OC3)c(OC)c1	16.2 µM	6.1 µM		86.3 µM	12.2 µM	11.2 µM		
COc1cc(C(=O)/C=C/c2ccc3c(c2)B(O)OC3)cc(OC)c1OC	7.9 µM	5.7 µM		18.5 µM	48.5 µM	10.6 µM		
O=C(/C=C/c1ccc2c(c1)B(O)OC2)c1ccc2c(c1)OCCO2	10.3 µM	7.3 µM		30.2 µM	11.7 µM	7.9 µM		
COc1cc(C(=O)/C=C/c2ccc3c(c2)B(O)OC3)ccc1[N+](=O)[O-]	4.1 µM	1.7 µM		26 µM	3.6 µM	11.4 µM		
COc1cc(C(=O)/C=C/c2ccc3c(c2)B(O)OC3)ccc1N	27.9 µM	1.7 µM		> 100 µM	17.6 µM	24.3 µM		
O=C(O)c1ccc(C(=O)/C=C/c2ccc3c(c2)B(O)OC3)cc1	> 100 µM	> 100 µM		> 100 µM	> 100 µM	> 100 µM		
O=C(/C=C/c1ccc2c(c1)B(O)OC2)c1cccnc1	20.5 µM	18.5 µM		76.2 µM	34.4 µM	11.4 µM		
COc1cccc2c1C(=O)c1c(O)c3c(c(O)c1C2=O)C[C@@](O)(C(=O)CO)C[C@@H]3O[C@H]1C[C@H](N)[C@H](O)[C@H](C)O1 [DOXORUBICIN]	0.31 µM	0.42 µM		9 µM	0.06 µM			
